Measurements from patent publication US8158656B2, “2-indolinone derivatives as multi-target protein kinase inhibitors and histone deacetylase inhibitors” (Shenzhen Chipscreen Biosciences Ltd., priority 2008, dated 2012).

What was measured:
HL60 = experiment: Tumor cell proliferation (MTS), HL60; assay type: cell-based; conditions: Homo sapiens, HL-60, HL60, 72 hours
Experimental: (§1) Measurement of in vivo cell proliferation:
(§2) Tumor cells were trypsinized and plated into 96-well plates at 3,000 per well and incubated in complete medium with 10% FBS for 24 hours. Compounds were added over a final concentration range of 100 μmol/L to 100 nmol/L in 0.1% DMSO and incubated for 72 hours in complete medium. The effects on proliferation were determined by addition of MTS reagent (Promega) according to the instruction, incubation for 2 hours at 37° C. in CO2 incubator, and record the absorbance at 490 nm using an ELISA plate reader.

MDA-MB-231 = experiment: Tumor cell proliferation (MTS), MDA-MB-231; assay type: cell-based; conditions: Homo sapiens, MDA-MB-231, 72 hours
Experimental: as §1, §2

HDAC7 = molecular target: T1, HDAC7 (Homo sapiens, UniProt Q8WUI4); experiment: Nur77 reporter assay in HeLa cells; assay type: cell-based; conditions: relative to CS055 at 3 μM
T1 construct: endogenous in cells; host or cells: HeLa
T1 sequence (Q8WUI4 1-952): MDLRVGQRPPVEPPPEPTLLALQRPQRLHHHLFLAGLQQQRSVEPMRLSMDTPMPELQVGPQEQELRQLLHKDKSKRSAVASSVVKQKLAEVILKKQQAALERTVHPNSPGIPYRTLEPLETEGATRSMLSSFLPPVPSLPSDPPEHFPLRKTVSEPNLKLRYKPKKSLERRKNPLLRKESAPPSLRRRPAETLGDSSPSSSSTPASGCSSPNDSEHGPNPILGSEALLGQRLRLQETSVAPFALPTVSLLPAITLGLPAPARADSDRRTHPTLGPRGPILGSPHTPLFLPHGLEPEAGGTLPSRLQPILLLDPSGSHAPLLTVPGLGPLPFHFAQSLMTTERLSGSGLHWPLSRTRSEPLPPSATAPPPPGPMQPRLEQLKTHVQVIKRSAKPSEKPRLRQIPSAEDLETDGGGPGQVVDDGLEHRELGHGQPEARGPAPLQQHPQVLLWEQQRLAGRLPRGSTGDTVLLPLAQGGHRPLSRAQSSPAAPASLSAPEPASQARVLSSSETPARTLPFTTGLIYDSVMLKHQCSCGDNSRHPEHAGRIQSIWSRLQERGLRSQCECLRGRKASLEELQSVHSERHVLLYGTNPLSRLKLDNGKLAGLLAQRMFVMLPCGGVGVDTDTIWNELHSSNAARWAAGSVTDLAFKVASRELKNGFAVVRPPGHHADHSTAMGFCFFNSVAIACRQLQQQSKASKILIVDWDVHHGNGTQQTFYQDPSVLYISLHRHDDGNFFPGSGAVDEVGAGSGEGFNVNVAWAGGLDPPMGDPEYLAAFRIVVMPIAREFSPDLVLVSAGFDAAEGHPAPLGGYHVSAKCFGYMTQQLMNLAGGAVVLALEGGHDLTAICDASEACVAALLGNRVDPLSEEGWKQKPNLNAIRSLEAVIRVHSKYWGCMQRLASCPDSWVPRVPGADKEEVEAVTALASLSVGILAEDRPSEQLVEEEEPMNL
Experimental: (§3) HDAC subtype selectivity inhibition assay of tested compounds was carried out by several reporter gene assays experiments. Briefly, HeLa cells were seeded in 96-well plates the day before transfection to give a confluence of 50-80%. Cells were transfected with one of reporter gene plasmid containing a promoter sequence or response element upstream of a luciferase gene construct using FuGene6 transfection reagent according to the manufacturer's instruction (Roche). The promoters or response elements including p21-promoter, gdf11-promoter, MEF-binding element (MEF2), Nur77-promoter were fused upstream to the luciferase gene reporter construct. For normalizing the transfection efficiency, a GFP expression plasmid was cotransfected. Cells were allowed to express protein for 24 hours followed by addition of individual compounds or the vehicle (DMSO). 24 hours later the cells were harvested, and the luciferase assay and GFP assay were performed using corresponding assay kits according to the manufacturer's instructions (Promega).

HeLa = experiment: Tumor cell proliferation (MTS), HeLa; assay type: cell-based; conditions: Homo sapiens, 72 hours
Experimental: as §1, §2

Ramos = experiment: Tumor cell proliferation (MTS), Ramos; assay type: cell-based; conditions: Homo sapiens, 72 hours
Experimental: as §1, §2

Class I HDAC = experiment: P21 reporter assay in HeLa cells; assay type: cell-based, human; conditions: relative to CS055 at 3 μM
Experimental: as §3

HUVEC cells = experiment: VEGF ligand-dependent cell proliferation; assay type: cell-based; conditions: Homo sapiens, VEGF 165 50 ng/ml, 72 hours, MTS
Experimental: VEGF dependent cell proliferation:
HUVEC cells were plated into 96-well plates at 6,000 per well and incubated with serum-free medium for 2 hours. Compounds and VEGF 165 (50 ng/ml) were added and incubated for 72 hours in serum-free medium. The effects on proliferation were determined by addition of MTS reagent (Promega) according to the instruction, incubation for 2 hours at 37° C. in CO2 incubator, and record the absorbance at 490 nm using an ELISA plate reader.

Hut-78 = experiment: Tumor cell proliferation (MTS), Hut-78; assay type: cell-based; conditions: Homo sapiens, HuT78, Hut-78, 72 hours
Experimental: as §1, §2

Jurkat = experiment: Tumor cell proliferation (MTS), Jurkat; assay type: cell-based; conditions: Homo sapiens, 72 hours
Experimental: as §1, §2

U937 = experiment: Tumor cell proliferation (MTS), U937; assay type: cell-based; conditions: Homo sapiens, U-937, U937, 72 hours
Experimental: as §1, §2

SMILES	GI50 (HL60)	GI50 (MDA-MB-231)	HDAC7 (Nur77 reporter assay) % Max Resp of CS055 at 3 μM (HDAC7)	GI50 (HeLa)	GI50 (Ramos)	Class I HDAC (P21 reporter assay) % Max Resp of CS055 at 3 μM (Class I HDAC)	GI50 (HUVEC cells)	GI50 (Hut-78)	GI50 (Jurkat)	GI50 (U937)
Cc1[nH]c(/C=C2\C(=O)Nc3ccc(F)cc32)c(C)c1C(=O)NCCCCNc1ccc(C(=O)Nc2ccc(F)cc2N)cn1 [Example 19, (Z)-N-(2-amino-4-fluorophenyl)-6-(4-(2-((5-fluoro-2-oxoindolin-3-ylidene)-methyl)-3,5-dimethyl-1H-pyrrole-4-carboxamido)butylamino)nicotinamide]	> 60 µM	> 60 µM	6.0%	> 60 µM	> 60 µM	2.3%	81 nM	> 60 µM	> 60 µM	> 60 µM
Cc1[nH]c(/C=N/N=C2\C(=O)Nc3ccc(F)cc32)c(C)c1C(=O)NCCCCNc1ccc(C(=O)Nc2ccc(F)cc2N)cn1 [Example 20, N-(2-amino-4-fluorophenyl)-6-(4-(2-(((5-fluoro-2-oxoindolin-3-ylidene)-hydrazono)methyl)-3,5-dimethyl-1H-pyrrole-4-carboxamido)butylamino)nicotinamide]	> 60 µM	> 60 µM	1.0%	> 60 µM	> 60 µM	2.8%	330 nM	> 60 µM	> 60 µM	> 60 µM
